In PMC4324493, “Synthesis, ^68Ga-Radiolabeling, and Preliminary In Vivo Assessment of a Depsipeptide-Derived Compound as a Potential PET/CT Infection Imaging Agent” (BioMed Research International, 2015):
Residues, ends and D or L forms follow the SMILES beside them. No end group written: not given here. *: point of attachment. DOTA = O=C(O)CN1CCN(CC(=O)O)CCN(CC(=O)*)CCN(CC(=O)O)CC1

Columns and labels:
E. coli (ATCC 25922) = test: Bacterial association assay (MALDI-TOF-MS), E. coli; format: binding, Escherichia coli; conditions: for Kd: E. coli 1.5 × 10^8 CFU, 20-100 μM compound, 37°C, 3 h, MALDI-TOF-MS, read-out: affinity binding constant (K); for bacterial binding and internalization (qualitative): E. coli, membrane-associated (sample 1) and cell-internalized (sample 2) fractions by MALDI-TOF-MS
Experimental: (§1) MALDI-TOF-MS analysis was performed on an Autoflex III MALDI-TOF mass spectrometer (Bruker, Coventry, United Kingdom) with a 337 nm nitrogen laser operating in a linear mode at an accelerated voltage of 20 kV. The α-cyano-4-hydroxycinnamic acid matrix was applied: the matrix solution was prepared by making a saturated solution of the matrix powder into TA30 solution (30% ACN and 70% water containing 0.1% TFA). A MALDI plate-sandwich method was used by spotting the compounds between spots of matrix solution. Analyses were done in triplicates; spectra were collected manually and the mass peak intensities were recorded. S. aur and E. coli strains were cultured at 37°C overnight and tested with the peptide (TBIA101), the peptide-conjugate (DOTA-TBIA101), and the gallium(III)-complexed derivative (^natGa-DOTA-TBIA101). The bacterial concentration was kept at 1.5 × 10^8 colony forming units (CFU). Five different concentrations (20, 40, 60, 80, and 100 μM) of the above-mentioned compounds were used for all experiments, following the described method. The final reaction volume was 600 μL. Bacteria and compound mixtures were incubated at 37°C in an orbital shaker at 100 rpm for 3 h. After incubation, the cells were centrifuged at 3000 ×g for 20 min and the supernatant was removed. The bacterial pellet was washed twice with 200 μL of phosphate buffered saline (pH 7.4) and 200 μL of 80% ACN containing 0.1% TFA was added to dissolve the pellet followed by vigorous mixing followed by centrifugation at 3000 ×g for 20 min. The supernatant (sample 1) was collected, representing the membrane-associated compound fraction. The residual pellet was treated with 200 μL of 80% ACN (sample 2), representing the cell-internalized compound fraction. Bacterial persistence in samples 1 and 2 was qualified with MALDI-TOF-MS.

[1] = tested on: Staphylococcus aureus (ATCC 25923) (S. aur); test: Bacterial association assay (MALDI-TOF-MS), S. aur; format: binding; conditions: for affinity binding constant (K): S. aur 1.5 × 10^8 CFU, 20-100 μM compound, 37°C, 3 h, MALDI-TOF-MS; for bacterial binding and internalization (qualitative): S. aur, membrane-associated (sample 1) and cell-internalized (sample 2) fractions by MALDI-TOF-MS
Experimental: as §1

in vitro = format: cell-based; conditions: human; for CC50 at 120 h: MT-4 cells
Experimental: The reduction of 2,3-bis-(2-methoxy-4-nitro-5-sulfophenyl)-2-H-tetrazolium-5-carboxanilide (XTT) was used to determine the cellular cytotoxicity of TBIA101, DOTA-TBIA101, and ^natGa-DOTA-TBIA101, as described by Scudiero et al.. MT-4 cells were obtained through the NIH AIDS Reagent Program, Division of AIDS, NIAID, NIH: MT-4 from Dr. Douglas Richman and were cultured and all incubations were done in RPMI medium containing 10% fetal calf serum at 37°C and 5% CO2-atmosphere. A 6 × 10^5 cells/mL concentration was used to seed cells into 96-well culture plates (total cell number of 2 × 10^4 per well) followed by exposure to eight 5-fold dilutions of the stock compound solutions (1 mg/mL). The plates were incubated for 5 days before XTT was added to react for 4 h. Formazan production was quantified, measuring absorbance at 450 nm (reference wavelength 620 nm), and related to the absorbance of untreated control cells (RPMI background). Cytotoxicity was determined by extrapolating the inhibitory concentration at 50% (IC50).

Compound | Kd (E. coli (ATCC 25922)) [nM] | bacterial binding and internalization (qualitative) (E. coli (ATCC 25922)) | affinity binding constant (K) [1] [nM] | bacterial binding and internalization (qualitative) [1] | CC50 at 120 h (in vitro) [µM] | IC50 at 5 days (in vitro) [µM]
CC[C@H](C)[C@H](NC(=O)CNC(=O)CNC(=O)CN1CCN(CC(=O)O)CCN(CC(=O)O)CCN(CC(=O)O)CC1)C(=O)N[C@H](C(=O)N[C@@H](CC(C)C)C(=O)N[C@H](C(=O)N1CCC[C@H]1C(=O)N[C@@H](CC(C)C)C(=O)N1CCC[C@H]1C(N)=O)C(C)C)[C@@H](C)O [DOTA-TBIA101] ({DOTA}-GGITLVPLP-NH2) | 0.028 ± 0.006 | binding and no detectable internalization | 0.029 ± 0.006 | binding and no detectable internalization | 42.1 | –
CC[C@H](C)[C@H](NC(=O)[C@@H](NC(=O)[C@H](CC(C)C)NC(=O)[C@@H](NC(=O)[C@@H]1CCCN1C(=O)[C@H](CC(C)C)NC(=O)[C@@H]1CCCN1C(=O)CN1CCN(CC(=O)O)CCN(CC(=O)O)CCN(CC(=O)O)CC1)C(C)C)[C@@H](C)O)C(=O)NCC(=O)NCC(N)=O [natGa-DOTA-TBIA101, metal not drawn] ({DOTA}-PLPVLTIGG-NH2) | 2.58 ± 1.04 | internalization | 2.97 ± 0.86 | internalization | – | 33.7
GGITLVPLP-NH2 (C-terminus assumed) [TBIA101] | 0.022 ± 0.006 | binding and internalization | 0.023 ± 0.007 | binding and internalization | 63.2 | –
